Calls of active or inactive are those of the source. The calls are words filed in the database; no cut-off is given here.

For data set [1], the target named is T1, Metabotropic glutamate receptor 1 (Homo sapiens, UniProt Q13255). As to the kind of experiment: Antagonist activity at human mGluR1 expressed in human Chem-3 cells assessed as inhibition of L-glutamate-induced calcium release by calcium-5 reagent-based fluorescence assay. The data set is classed as functional, cell-based.
In data set [2] the target is T1, Metabotropic glutamate receptor 1. As to the kind of experiment: Antagonist activity at human mGluR1 expressed in human Chem-3 cells assessed as inhibition of L-glutamate-induced calcium release at 10 uM by calcium-5 reagent-based fluorescence assay relative to control. It counts as functional, cell-based.
Data set [3] concerns the target T2, Metabotropic glutamate receptor 5 (Homo sapiens, UniProt P41594). Briefly: Antagonist activity at human mGluR5 expressed in human embryonic kidney cells assessed as inhibition of L-glutamate-induced calcium release at 10 uM by calcium-5 reagent-based fluorescence assay relative to control. The data set is classed as functional, cell-based.
Target sequence in this assay (P41594 21-1212 limits assumed): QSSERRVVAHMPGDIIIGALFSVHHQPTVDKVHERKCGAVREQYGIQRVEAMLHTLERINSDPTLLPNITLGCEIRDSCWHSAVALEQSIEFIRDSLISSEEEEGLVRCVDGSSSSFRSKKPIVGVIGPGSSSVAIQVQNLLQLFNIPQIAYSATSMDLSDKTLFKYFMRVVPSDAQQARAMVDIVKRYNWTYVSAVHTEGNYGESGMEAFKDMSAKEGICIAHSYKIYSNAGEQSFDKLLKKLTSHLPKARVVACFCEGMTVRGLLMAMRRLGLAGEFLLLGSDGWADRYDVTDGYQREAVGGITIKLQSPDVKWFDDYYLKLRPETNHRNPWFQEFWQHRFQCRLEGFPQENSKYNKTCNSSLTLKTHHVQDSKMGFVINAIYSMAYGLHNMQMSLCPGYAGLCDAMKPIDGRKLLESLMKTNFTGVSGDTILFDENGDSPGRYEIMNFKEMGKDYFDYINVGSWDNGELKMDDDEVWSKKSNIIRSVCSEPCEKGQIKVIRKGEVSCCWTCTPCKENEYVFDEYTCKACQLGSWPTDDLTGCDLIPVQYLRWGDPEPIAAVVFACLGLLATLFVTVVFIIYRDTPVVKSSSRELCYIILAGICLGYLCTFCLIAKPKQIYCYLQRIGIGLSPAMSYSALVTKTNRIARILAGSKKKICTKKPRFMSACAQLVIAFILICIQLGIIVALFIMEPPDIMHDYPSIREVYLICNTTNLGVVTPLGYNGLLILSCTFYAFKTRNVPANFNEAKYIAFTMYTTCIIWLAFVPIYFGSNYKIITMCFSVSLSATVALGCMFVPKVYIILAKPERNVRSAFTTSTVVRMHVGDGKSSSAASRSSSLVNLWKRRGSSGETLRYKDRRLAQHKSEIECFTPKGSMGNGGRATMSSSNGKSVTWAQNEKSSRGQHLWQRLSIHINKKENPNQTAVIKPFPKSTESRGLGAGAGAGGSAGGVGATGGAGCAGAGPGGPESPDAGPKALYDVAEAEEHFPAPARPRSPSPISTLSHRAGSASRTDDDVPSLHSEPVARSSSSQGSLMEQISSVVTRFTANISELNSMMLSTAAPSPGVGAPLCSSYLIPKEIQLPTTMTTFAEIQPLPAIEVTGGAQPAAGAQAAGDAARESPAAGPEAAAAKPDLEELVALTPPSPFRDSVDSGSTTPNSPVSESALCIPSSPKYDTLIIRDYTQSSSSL
In data set [4] the target is T2, Metabotropic glutamate receptor 5. Briefly: Antagonist activity at human mGluR5 expressed in human embryonic kidney cells assessed as inhibition of L-glutamate-induced calcium release by calcium-5 reagent-based fluorescence assay. The data set is classed as functional, cell-based.
Target sequence in this assay (P41594 whole entry): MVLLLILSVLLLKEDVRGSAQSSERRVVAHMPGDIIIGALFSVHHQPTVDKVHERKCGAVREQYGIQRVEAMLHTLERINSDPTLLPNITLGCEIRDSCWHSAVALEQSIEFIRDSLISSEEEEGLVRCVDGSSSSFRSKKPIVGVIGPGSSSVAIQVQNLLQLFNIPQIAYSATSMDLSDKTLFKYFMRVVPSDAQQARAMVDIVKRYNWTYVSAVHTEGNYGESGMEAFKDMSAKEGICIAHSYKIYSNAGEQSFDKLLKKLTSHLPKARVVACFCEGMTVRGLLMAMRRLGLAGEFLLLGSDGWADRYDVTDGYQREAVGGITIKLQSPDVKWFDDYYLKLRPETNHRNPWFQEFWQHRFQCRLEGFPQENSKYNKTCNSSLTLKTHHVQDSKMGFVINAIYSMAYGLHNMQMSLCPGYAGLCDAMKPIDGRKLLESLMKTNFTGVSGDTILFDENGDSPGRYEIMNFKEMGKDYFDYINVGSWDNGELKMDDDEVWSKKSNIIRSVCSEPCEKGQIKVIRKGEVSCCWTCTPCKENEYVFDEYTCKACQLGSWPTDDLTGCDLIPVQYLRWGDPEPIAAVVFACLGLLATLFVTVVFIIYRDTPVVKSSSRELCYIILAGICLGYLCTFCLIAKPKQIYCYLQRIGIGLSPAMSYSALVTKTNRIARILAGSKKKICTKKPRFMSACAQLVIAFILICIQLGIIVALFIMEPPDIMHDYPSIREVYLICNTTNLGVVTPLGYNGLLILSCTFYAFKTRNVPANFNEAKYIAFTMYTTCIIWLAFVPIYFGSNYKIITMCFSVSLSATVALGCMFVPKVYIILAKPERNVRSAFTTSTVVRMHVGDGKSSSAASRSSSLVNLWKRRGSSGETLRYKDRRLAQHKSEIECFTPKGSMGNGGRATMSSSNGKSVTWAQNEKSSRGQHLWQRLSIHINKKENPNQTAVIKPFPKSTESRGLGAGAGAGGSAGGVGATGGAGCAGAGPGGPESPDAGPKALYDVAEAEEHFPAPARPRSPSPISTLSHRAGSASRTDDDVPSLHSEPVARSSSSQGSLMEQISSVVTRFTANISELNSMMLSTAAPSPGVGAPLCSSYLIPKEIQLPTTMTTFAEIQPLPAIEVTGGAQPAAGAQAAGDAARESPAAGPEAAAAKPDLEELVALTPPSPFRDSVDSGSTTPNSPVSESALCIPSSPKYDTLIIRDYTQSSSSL
In data set [5] the target is CYP3A4 (Homo sapiens, UniProt P08684). As to the kind of experiment: Inhibition of recombinant human CYP3A4 assessed as remaining activity at 10 uM preincubated for 5 mins followed by substrate and NADP addition measured after 20 mins by fluorescence assay relative to control. The data set is classed as ADME. Particulars: read-out: Activity.
Sequence of CYP3A4 (P08684 whole entry): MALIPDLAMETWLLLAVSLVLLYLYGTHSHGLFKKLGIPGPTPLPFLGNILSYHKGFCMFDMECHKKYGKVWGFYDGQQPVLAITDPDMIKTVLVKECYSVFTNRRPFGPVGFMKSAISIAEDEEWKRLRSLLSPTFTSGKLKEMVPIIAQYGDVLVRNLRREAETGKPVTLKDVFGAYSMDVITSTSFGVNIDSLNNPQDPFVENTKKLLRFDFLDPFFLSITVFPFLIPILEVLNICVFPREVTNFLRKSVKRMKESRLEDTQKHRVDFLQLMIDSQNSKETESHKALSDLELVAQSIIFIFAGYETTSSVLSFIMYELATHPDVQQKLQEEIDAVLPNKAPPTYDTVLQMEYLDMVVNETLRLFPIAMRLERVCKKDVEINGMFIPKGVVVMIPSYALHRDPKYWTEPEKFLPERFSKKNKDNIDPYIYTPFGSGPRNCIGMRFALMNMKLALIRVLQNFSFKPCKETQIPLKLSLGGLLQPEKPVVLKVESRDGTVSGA
Data set [6] is described as follows: Metabolic stability in human liver microsomes assessed as compound remaining at 1 uM after 30 mins by LC-MS/MS analysis in presence of NADPH. It counts as ADME. Particulars: read-out: Stability. For orientation: Liver microsomes are a subcellular fraction often used to study metabolism.
The target of data set [7] is T3, CYP1A2 (Homo sapiens, UniProt P05177).
T3 sequence (P05177 whole entry): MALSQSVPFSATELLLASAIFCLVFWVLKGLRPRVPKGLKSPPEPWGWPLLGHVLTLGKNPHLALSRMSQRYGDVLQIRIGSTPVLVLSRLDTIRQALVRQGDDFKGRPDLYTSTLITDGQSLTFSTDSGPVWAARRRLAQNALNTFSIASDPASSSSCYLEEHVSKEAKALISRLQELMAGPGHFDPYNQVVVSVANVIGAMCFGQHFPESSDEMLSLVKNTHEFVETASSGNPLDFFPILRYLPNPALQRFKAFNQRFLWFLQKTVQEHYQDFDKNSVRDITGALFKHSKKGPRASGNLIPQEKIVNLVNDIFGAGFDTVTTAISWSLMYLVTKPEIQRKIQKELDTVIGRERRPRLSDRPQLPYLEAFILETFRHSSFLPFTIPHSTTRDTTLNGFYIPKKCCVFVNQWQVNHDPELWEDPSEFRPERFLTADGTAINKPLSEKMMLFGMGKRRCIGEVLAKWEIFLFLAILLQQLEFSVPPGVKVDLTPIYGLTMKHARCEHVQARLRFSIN
As to the kind of experiment: Inhibition of recombinant human CYP1A2 assessed as remaining activity at 10 uM preincubated for 5 mins followed by substrate and NADP addition measured after 20 mins by fluorescence assay relative to control. The data set is classed as ADME. To be noted: read-out: Activity.

Data set [8] addresses CYP2C9 (Homo sapiens, UniProt P11712). Briefly: Inhibition of recombinant human CYP2C9 assessed as remaining activity at 10 uM preincubated for 5 mins followed by substrate and NADP addition measured after 20 mins by fluorescence assay relative to control. It counts as ADME. To be noted: read-out: Activity.
Data set [9] has as its target CYP2D6 (Homo sapiens, UniProt P10635). Briefly: Inhibition of recombinant human CYP2D6 assessed as remaining activity at 10 uM preincubated for 5 mins followed by substrate and NADP addition measured after 20 mins by fluorescence assay relative to control. It counts as ADME. To be noted: read-out: Activity.
Data set [10] addresses CYP2C19 (Homo sapiens, UniProt P33261). Briefly: Inhibition of recombinant human CYP2C19 assessed as remaining activity at 10 uM preincubated for 5 mins followed by substrate and NADP addition measured after 20 mins by fluorescence assay relative to control. The data set is classed as ADME. Particulars: read-out: Activity.
For data set [11], the system named is Rattus norvegicus. As to the kind of experiment: Analgesic activity in rat spinal nerve ligation model of neuropathic pain assessed as recovery from mechanical allodynia at 100 mg/kg, po administered on day 14 post ligation surgery measured after 3 hrs relative to control. The data set is classed as functional.
In data set [12] the test system is Rattus norvegicus. Briefly: Analgesic activity in rat spinal nerve ligation model of neuropathic pain assessed as recovery from cold allodynia at 100 mg/kg, po administered on day 14 post ligation surgery measured after 1 hr relative to control. It counts as functional.

Sequence of CYP2D6 (P10635 whole entry): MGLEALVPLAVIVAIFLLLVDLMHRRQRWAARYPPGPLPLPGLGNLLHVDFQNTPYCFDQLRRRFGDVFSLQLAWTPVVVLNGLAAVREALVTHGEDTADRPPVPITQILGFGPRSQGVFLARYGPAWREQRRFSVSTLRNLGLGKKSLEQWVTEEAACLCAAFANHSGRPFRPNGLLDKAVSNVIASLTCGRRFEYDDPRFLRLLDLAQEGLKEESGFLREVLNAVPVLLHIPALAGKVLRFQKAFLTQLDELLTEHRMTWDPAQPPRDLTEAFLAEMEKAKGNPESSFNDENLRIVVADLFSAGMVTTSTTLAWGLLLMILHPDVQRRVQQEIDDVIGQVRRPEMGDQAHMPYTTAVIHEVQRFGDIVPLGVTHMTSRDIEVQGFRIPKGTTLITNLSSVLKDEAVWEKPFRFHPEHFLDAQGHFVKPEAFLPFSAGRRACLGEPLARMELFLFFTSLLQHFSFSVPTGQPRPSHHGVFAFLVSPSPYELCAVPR
Sequence of CYP2C19 (P33261 whole entry): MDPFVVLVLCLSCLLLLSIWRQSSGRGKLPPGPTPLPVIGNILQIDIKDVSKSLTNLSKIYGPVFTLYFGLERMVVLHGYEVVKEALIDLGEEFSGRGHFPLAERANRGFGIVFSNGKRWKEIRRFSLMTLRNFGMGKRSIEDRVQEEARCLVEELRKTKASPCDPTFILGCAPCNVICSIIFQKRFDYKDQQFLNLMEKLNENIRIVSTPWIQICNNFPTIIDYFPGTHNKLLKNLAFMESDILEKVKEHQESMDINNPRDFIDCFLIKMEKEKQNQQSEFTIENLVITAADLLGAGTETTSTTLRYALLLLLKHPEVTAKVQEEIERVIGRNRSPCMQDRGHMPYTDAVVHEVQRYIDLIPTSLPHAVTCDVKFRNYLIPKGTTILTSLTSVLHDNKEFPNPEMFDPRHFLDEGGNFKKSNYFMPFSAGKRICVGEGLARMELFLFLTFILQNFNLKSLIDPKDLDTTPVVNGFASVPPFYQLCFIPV
Sequence of CYP2C9 (P11712 whole entry): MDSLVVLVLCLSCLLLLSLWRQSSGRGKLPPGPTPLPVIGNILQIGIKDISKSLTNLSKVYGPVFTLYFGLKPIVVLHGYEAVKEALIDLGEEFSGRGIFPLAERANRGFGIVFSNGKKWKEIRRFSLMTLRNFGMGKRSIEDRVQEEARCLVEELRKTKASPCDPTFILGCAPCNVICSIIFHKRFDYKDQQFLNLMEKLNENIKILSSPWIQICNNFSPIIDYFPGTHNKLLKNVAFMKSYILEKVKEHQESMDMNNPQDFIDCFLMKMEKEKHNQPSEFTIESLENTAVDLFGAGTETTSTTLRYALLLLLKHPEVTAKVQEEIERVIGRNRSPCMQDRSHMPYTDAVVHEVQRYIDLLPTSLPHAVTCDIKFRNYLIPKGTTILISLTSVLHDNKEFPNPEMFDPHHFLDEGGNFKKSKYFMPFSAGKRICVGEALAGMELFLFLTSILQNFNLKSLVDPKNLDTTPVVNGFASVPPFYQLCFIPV

With `N#Cc1c(NCc2ccccc2)sc2c1CCN(C(=O)c1cnccc1F)C2`, in data set [1], the IC50 (as a rule, the concentration that inhibits the measured activity by half) stood at 1240 nM. In addition, the inhibition (commonly the drop in the measured response relative to a control, in per cent) came out at 90.1% in data set [2] and 16% in data set [3].
In the case of `Cc1ccc(C(=O)N2CCc3c(sc(NCc4ccccc4)c3C#N)C2)cc1`, the IC50 in data set [1] turned out to be 4720 nM. The inhibition worked out at 69.7% in data set [2] and 24.3% in data set [3].
Regarding `CC(C)c1cc(C(=O)N2CCc3c(sc(NC(=O)c4ccccc4)c3C#N)C2)[nH]n1`, the inhibition in data set [2] amounted to 14.6%; in [3] it was 39.3%.
For the compound `N#Cc1c(NCc2ccccc2)sc2c1CCN(C(=O)c1ccn[nH]1)C2`, the IC50 in data set [1] was found to be 1090 nM. Moreover, the inhibition was 94.9% in data set [2] and 4.48% in data set [3].
For the compound `Cc1cc(C(=O)N2CCc3c(sc(NC(=O)c4ccc(F)cc4)c3C#N)C2)[nH]n1`, the inhibition in data set [2] is 31%; in data set [3], 13.7%.
Turning to `N#Cc1c(NCc2ccc(F)cc2)sc2c1CCN(C(=O)c1ccn[nH]1)C2`, the half-maximal inhibitory concentration (IC50) in [1] stood at 2030 nM. Moreover, the inhibition amounted to 91.4% in [2] and 13.5% in data set [3].
Take `COc1ccc(C(=O)N2CCc3c(sc(NCc4cccc(F)c4)c3C#N)C2)cc1`: the concentration for half-maximal inhibition (IC50) in data set [4] stood at 4730 nM. The inhibition in [2] worked out at 42.8%; in data set [3] it was 69%.
In the case of `CC(C)c1cc(C(=O)N2CCc3c(sc(NCc4ccc(Cl)cc4)c3C#N)C2)[nH]n1`, the inhibition in data set [2] was 46.3%; in data set [3] it was 24.8%.
For `Cc1cc(C(=O)N2CCc3c(sc(NC(=O)c4ccc(Cl)cc4)c3C#N)C2)[nH]n1`, the inhibition in data set [2] is 42.2%; in [3], -2.15%.
Consider `CC(C)c1cc(C(=O)N2CCc3c(sc(NC(=O)c4ccc(Cl)cc4)c3C#N)C2)[nH]n1`, for which, in data set [1], the half-inhibitory concentration (IC50) came out at 12200 nM. Further, the inhibition in data set [2] is 62.5%; in [3] it was -4.28%.
Turning to `N#Cc1c(NCc2ccc(F)cc2)sc2c1CCN(C(=O)c1ccccc1)C2`, in [1], the half-inhibitory concentration (IC50) amounted to 1810 nM. Besides, the activity at 20 min, 10 µM turned out to be 24.2% in [5]; 52% in [7]; 5.48% in data set [8]; 36.4% in [9]; 3.81% in data set [10]. In addition, in data set [6], the remaining at 0.5 h, 1 µM turned out to be 33.4%. Also, the inhibition in data set [2] came out at 77.8%; in data set [3], 26.4%.
Consider `CC(C)c1cc(C(=O)N2CCc3c(sc(NCc4ccc(F)cc4)c3C#N)C2)[nH]n1`, for which the inhibition is 40.7% in [2] and 43.1% in data set [3].
Turning to `N#Cc1c(NCc2cccc(F)c2)sc2c1CCN(C(=O)c1ccc(Cl)cc1)C2`, the values for the inhibition in data set [2] and in [3] were 41.2% and 60%, respectively.
As to `COc1cccc(CNc2sc3c(c2C#N)CCN(C(=O)c2cccc(F)c2)C3)c1`, the inhibition in [2] stood at 15.5%; in data set [3], 33.2%.
In the case of `N#Cc1c(NCc2ccccc2)sc2c1CCN(C(=O)c1cccc(F)c1)C2`, in data set [1], the IC50 was 2900 nM. The figures for the inhibition in data set [2] and in data set [3] were 79% and 29.8%, respectively.
Consider `Cc1cc(C(=O)N2CCc3c(sc(NCc4ccc(Cl)cc4)c3C#N)C2)[nH]n1`, for which the results for the inhibition in [2] and in data set [3] were 40.9% and 31.2%, respectively.
Consider `N#Cc1c(NCc2ccccc2)sc2c1CCN(C(=O)c1ccccc1)C2`, for which the half-maximal inhibitory concentration (IC50) in [1] came out at 2820 nM. Moreover, the inhibition came out at 66.4% in data set [2] and 46% in data set [3].
On to `N#Cc1c(NCc2ccc(Cl)cc2)sc2c1CCN(C(=O)c1ccc(F)cc1)C2`, for which the results for the inhibition in [2] and in data set [3] were 35.2% and 25.3%, respectively.
Turning to `Cc1cccc(C(=O)N2CCc3c(sc(NCc4ccccc4)c3C#N)C2)c1`, the IC50 in [1] worked out at 3140 nM. Further, the activity at 20 min, 10 µM is 9.36% in [5]; 42.6% in data set [7]; 4.33% in [8]; 35.7% in data set [9]; 4.57% in data set [10]. For the same compound, the remaining at 0.5 h, 1 µM in data set [6] was 16.4%. Also, the figures for the inhibition in data set [2] and in data set [3] were 73.5% and 8.8%, respectively.
Turning to `N#Cc1c(NCc2cccc(F)c2)sc2c1CCN(C(=O)c1ccc(F)cc1)C2`, the concentration for half-maximal inhibition (IC50) in data set [1] amounted to 2380 nM. For the same compound, the inhibition in data set [2] stood at 82%; in data set [3] it was 36.5%.
`NCC1(CC(=O)O)CCCCC1` [GABAPENTIN]: the Activity amounted to 80% in data set [11] and 40% in data set [12].
As to `CC(C)c1cc(C(=O)N2CCc3c(sc(NC(=O)c4ccc(F)cc4)c3C#N)C2)[nH]n1`, the inhibition in data set [2] is 28.5%; in data set [3], -2.3%.
`COc1ccc(C(=O)Nc2sc3c(c2C#N)CCN(C(=O)c2cc(C(C)C)n[nH]2)C3)cc1`: the IC50 in data set [4] is 4830 nM. The inhibition in data set [2] is -6.42%; in [3], 63.1%.
Turning to `COc1cccc(CNc2sc3c(c2C#N)CCN(C(=O)c2ccc(F)cc2)C3)c1`, the half-inhibitory concentration (IC50) in [1] turned out to be 3090 nM. The activity at 20 min, 10 µM was found to be 12.5% in [5]; 78.5% in [7]; 6.46% in [8]; 35% in data set [9]; 7.99% in data set [10]. Besides, the remaining at 0.5 h, 1 µM in [6] amounted to 12.1%. The inhibition in [2] worked out at 67.5%; in data set [3], 31.1%.
For `COc1ccc(C(=O)N2CCc3c(sc(NCc4ccc(C#N)cc4)c3C#N)C2)cc1`, the inhibition in data set [2] is 10.9%; in data set [3] it was 41.5%.
For `CC(C)c1cc(C(=O)N2CCc3c(sc(NCc4ccccc4)c3C#N)C2)[nH]n1`, the IC50 in data set [1] worked out at 43200 nM. Besides, the inhibition in data set [2] worked out at 54.4%; in data set [3], 8.89%.
Regarding `N#Cc1c(NCc2ccc(F)cc2)sc2c1CCN(C(=O)c1ccc(F)cc1)C2`, the results for the inhibition in [2] and in [3] were 73.1% and 22.3%, respectively.
As to `Cc1ccc(C(=O)N2CCc3c(sc(NCc4cccc(F)c4)c3C#N)C2)cc1`, the inhibition in data set [2] was determined as 43.9%; in data set [3], 54.8%.
As for `Cc1cc(C(=O)N2CCc3c(sc(NC(=O)c4ccccc4)c3C#N)C2)[nH]n1`, the inhibition in [2] was 8.51%; in data set [3], 27.8%.
For the compound `Cc1ccc(C(=O)N2CCc3c(sc(NCc4ccc(F)cc4)c3C#N)C2)cc1`, the inhibition in data set [2] turned out to be 46.6%; in [3] it was 37.6%.
For `N#Cc1c(NCc2ccccc2)sc2c1CCN(C(=O)c1ccc(F)cc1)C2`, the IC50 in data set [1] worked out at 600 nM. Moreover, the activity at 20 min, 10 µM is 20% in data set [5]; 58.1% in data set [7]; 5.48% in data set [8]; 42% in data set [9]; 9.94% in [10]. Besides, in data set [6], the remaining at 0.5 h, 1 µM came to 49.4%. In addition, the results for the inhibition in [2] and in data set [3] were 91.5% and 26.1%, respectively. Besides, the Activity result in [11] is “inactive”. In addition, the Activity result in data set [12] was “Active”.
For `COc1ccc(C(=O)N2CCc3c(sc(NCc4ccc(F)cc4)c3C#N)C2)cc1`, the IC50 in data set [4] was 1430 nM. The inhibition worked out at 47.7% in data set [2] and 68% in [3].
On to `N#Cc1c(NCc2cccc(F)c2)sc2c1CCN(C(=O)c1ccccc1)C2`, for which, in data set [1], the IC50 was found to be 5310 nM. In addition, the inhibition was determined as 63.9% in data set [2] and 44.2% in data set [3].
With `Cc1cc(C(=O)N2CCc3c(sc(NCc4ccc(F)cc4)c3C#N)C2)[nH]n1`, the IC50 in data set [1] came out at 2450 nM. Moreover, the values for the inhibition in data set [2] and in data set [3] were 84.2% and 37.6%, respectively.
For the compound `COc1ccc(C(=O)Nc2sc3c(c2C#N)CCN(C(=O)c2cc(C)n[nH]2)C3)cc1`, the inhibition in data set [2] was -9.58%; in [3], 28.3%.
Regarding `N#Cc1ccc(CNc2sc3c(c2C#N)CCN(C(=O)c2ccccc2)C3)cc1`, the inhibition amounted to 36.8% in data set [2] and 3.16% in data set [3].

For the origin of these results see ChEMBL document CHEMBL3421577, “Discovery and biological evaluation of tetrahydrothieno[2,3-c]pyridine derivatives as selective metabotropic glutamate receptor 1 antagonists for the potential treatment of neuropathic pain” (Eur J Med Chem, 2015).
